The record followed here is patent publication KR20120090118A, “자귀나무 추출물을 포함하는 항암 또는 항암 보조용 조성물” (학교법인 동의학원, priority 2010, dated 2012).

Series [1] has as its system human Jurkat T cells [Human Jurkat T세포]. The series can be described thus: Combination of Julibroside III and doxorubicin: cytotoxicity (MTT assay, 48 h) and FIC in Jurkat T cells. Type of series: cell-based.
For series [2], the system named is mouse liver or kidney [마우스의 간이나 신장]. The series can be described thus: Safety in mice: histological signs of toxicity in liver or kidney (in vivo sarcoma experiment). Particulars: up to 100mg/kg.
Setting [3] is: doxorubicin and Julibroside III used in combination.

For the molecule `C=C[C@](C)(CC/C=C(\C)C(=O)O[C@H]1[C@H](O)[C@@H](O)[C@H](O[C@](C)(C=C)CC/C=C(\C)C(=O)O[C@H]2C[C@]3(C(=O)O[C@@H]4O[C@H](CO)[C@@H](O)[C@H](O)[C@H]4O[C@@H]4O[C@@H](C)[C@H](O[C@@H]5O[C@@H](CO)[C@H](O)[C@H]5O)[C@@H](O[C@@H]5O[C@H](CO)[C@@H](O)[C@H](O)[C@H]5O)[C@H]4O)[C@H](O)C[C@]4(C)C(=CC[C@@H]5[C@@]6(C)CC[C@H](O[C@@H]7O[C@H](CO[C@@H]8O[C@H](C)[C@H](O)[C@H](O)[C@H]8O[C@@H]8OC[C@@H](O)[C@H](O)[C@H]8O)[C@@H](O)[C@H](O)[C@H]7NC(C)=O)C(C)(C)[C@@H]6CC[C@]54C)[C@@H]3CC2(C)C)O[C@@H]1C)O[C@@H]1O[C@H](C)[C@@H](O)[C@H](O)[C@H]1O` [Julibroside III], the IC50 in series [1] (setting [3]) was 0.63 µg/mL; in series [1] (treated alone) it was 2.5 µg/mL. For the same molecule, the “histological signs of toxicity in liver or kidney” value in series [2] is “징후가 전혀 없음”.

`COc1cccc2c1C(=O)c1c(O)c3c(c(O)c1C2=O)C[C@@](O)(C(=O)CO)C[C@@H]3O[C@H]1C[C@H](N)[C@H](O)[C@H](C)O1` [독소루비신, reference compound]: the half-maximal inhibitory concentration (IC50) came out at 0.16 µg/mL in series [1] (setting [3]) and 0.31 µg/mL in series [1] (treated alone).
